Data taken from patent US20130203668A1, “PHARMACEUTICAL COMPOSITION COMPRISING ANTIPLATELET AGENTS AND AN ERYTHROPOIESIS STIMULATING AGENT” (CADILA HEALTHCARE LIMITED, priority 2010, published 2013).

Experiments:
[1] = tested on: platelet rich plasma (PRP); assay: Effect of clopidogrel and aspirin on rHuEPO-induced platelet reactivity, ex vivo platelet aggregation; format: in vivo, male Wistar rats; settings: for Effect on platelet aggregatory response in rHuEPO treated rats (in words): rHuEPO (25 μg/kg, S.C.) treated rats, clopidogrel 2.5 mg/kg p.o., aspirin 75 mg/kg p.o.; for % platelet aggregation: rHuEPO 25 μg/kg s.c., Clopidogrel 2.5 mg/kg p.o., Aspirin 75 mg/kg p.o.
Description: (§1) Six to eight week old male Wistar rats used and the methods and procedures described here have been reviewed and approved by the Institutional Animal Ethics Committee (IAEC). Wistar male rats were divided in groups [each group containing 6 animals (n=6)]. Control animal received vehicle only (0.9% w/v NaCl normal saline), treatment groups received three consecutive doses of Recombinant Human Erythropoietin (25 and 50 μg/kg, s.c.) at an interval of 24 hour. Blood collection was performed at 48 hour after the last injection of Erythropoietin in citrated tubes. Platelet rich plasma (PRP) was separated. Determination of ex-vivo platelet aggregation was performed by using 1) ADP as aggregation inducing agent 2) Arachidonic acid as aggregation inducing agent 3) Thrombin as aggregation inducing agent and 4) Collagen as aggregation inducing agent. Platelet aggregation was performed by turbidometric method using high through put 96-well plate. Optical density was measured at 405 nm by Spectra Max plate reader. […] Increase in platelet aggregatory response meaning increase in platelet reactivity when same concentration of aggregating agent is used.
Six to eight week old male Wistar rats were divided in groups [each group containing 6 animals (n=6)]. Control animal received vehicle only (0.9% w/v NaCl normal saline), treatment groups received three consecutive doses of Recombinant Human Erythropoietin (25 μg/kg, s.c.) at an interval of 24 hour. Aspirin (75 mg/kg p.o.), and Clopidogrel (2.5 mg/kg, p.o.) were dosed individually and in combination with each other to respective groups at 48 hour after the last injection of erythropoietin. Blood collection was performed after 2 hours of antiplatelet treatment. Platelet rich plasma (PRP) was separated. Determination of ex-vivo platelet aggregation was performed by using 1) ADP as aggregation inducing agent 2) Arachidonic acid as aggregation inducing agent 3) Thrombin as aggregation inducing agent and 4) Collagen as aggregation inducing agent.

[2] = tested on: platelet rich plasma (PRP); assay: Ex vivo ADP-induced platelet aggregation in 5/6 nephrectomized rats (chronic kidney disease model); design: species or system male Wistar rats; settings: i.v. 3 times a week for 4 weeks; for Platelet aggregation (%) Average: 2.5 μM ADP, 5/6 nephrectomized rats, EPO 500 IU/kg, Clopi 10 mg/kg
Excerpt: (§2) Six to eight week old male Wistar rats used and the methods and procedures described here have been reviewed and approved by the Institutional Animal Ethics Committee (IAEC). We used human therapeutic dose of rHuEPO in rats and same frequency of administration as in humans (Kirkeby A et al., Thromb Haemost, 2008; 99:720-728). A 5/6 nephrectomy has been performed on male wistar rats (Toba H et al., European Journal of Pharmacology 656, 2011, 81-87) and treatment has been started after one month of nephrectomy.
(§3) The rats were divided into 5 groups (n=6): 1) a control group, which received a sham operation (SHAM control); 2) a 5/6 nephrectomized group (NPX), removed the upper and lower poles of the left kidney and after one week the entire right kidney under anesthesia (NPX vehicle); 3) a 5/6 nephrectomy+rHuEPO group, nephrectomized and injected with rHuEPO at 500 IU/kg 3 times a week intravenously (i.v.) for 4 weeks (NPX+EPO); 4) a 5/6 nephrectomized+rHuEPO+clopidogrel group, nephrectomized and administered with rHuEPO (500 IU/kg)+clopidogrel (10 mg/kg) every 3 times a week intravenously (i.v.) for 4 weeks. 5) a 5/6 nephrectomized+clopidogrel group, nephrectomized and administered with rHuEPO (500 IU/kg)+clopidogrel (10 mg/kg) every 3 times a week intravenously (i.v.) for 4 weeks.
(§4) After 4 weeks of treatment, blood samples were collected via retro-orbital route in tubes containing 3.8% tri-sodium citrate for the collection of platelet rich plasma (PRP) for ADP-induced platelet aggregation studies. Blood samples were also collected for hematological analysis in tubes containing 5% EDTA. Serum samples were used for measurement of various kidney biomarkers such as creatinine, urea, uric acid, blood urea nitrogen and total protein.
Increase in platelet aggregatory response meaning increase in platelet reactivity when same concentration of aggregating agent is used.

[3] = Hematological parameters in 5/6 nephrectomized rats (chronic kidney disease model); format: in vivo, male Wistar rats; settings: i.v. 3 times a week for 4 weeks; for Hematocrit (%) Average / Hemoglobin (g/dL) Average / RBC count (10^6/μL) Average: 5/6 nephrectomized rats, EPO 500 IU/kg, Clopi 10 mg/kg
Excerpt: as §2, §3, §4

[4] = tested on: platelet rich plasma (PRP); assay: Effect of rHuEPO on platelet reactivity, ex vivo platelet aggregation (ADP, arachidonic acid, thrombin, collagen); format: in vivo, male Wistar rats; settings: for % platelet aggregation: s.c. treated rats
Description: as §1

[5] = Bleeding time, tail transaction test; format: in vivo, male Wistar rats; settings: rHuEPO 25 μg/kg s.c., Clopidogrel 2.5 mpk, Aspirin 75 mpk; Wistar rats
Description: Six to eight week old male Wistar rats were divided in groups [each group containing 6 animals (n=6)]. Control animal received vehicle only (0.9% w/v NaCl normal saline), treatment groups received three consecutive doses of Recombinant Human Erythropoietin (25 μg/kg, S.C.) at an interval of 24 hour. Aspirin (75 mg/kg p.o.), and Clopidogrel (2.5 mg/kg, p.o.) individually and in combination with each other were dosed to respective groups at 48 hour after the last injection of Erythropoietin. Bleeding time experiment using tail transaction test was performed.

[6] = Kidney biomarkers in serum of 5/6 nephrectomized rats (chronic kidney disease model); format: in vivo, male Wistar rats; settings: i.v. 3 times a week for 4 weeks
Excerpt: as §2, §3, §4
There was increase in the serum creatinine, serum urea, serum uric acid, blood urea nitrogen and decrease in serum total protein in nephrectomized animals. […] There was improvement in the kidney function when combination of rHuEPO and antiplatelet agent has been given every 3 times a week intravenously (i.v.) for 4 weeks in nephrectomized rats (FIGS. 6a, 6b, 6c, 6d and 6e).

[7] = 5/6 nephrectomized rats, EPO 500 IU/kg, Clopi 10 mg/kg

For `CC(=O)Oc1ccccc1C(=O)O` [Aspirin, reference compound], the “Effect on platelet aggregatory response in rHuEPO treated rats (in words)” value [1] was “further normalizes the hyper reactive platelets”.

In the case of `COC(=O)[C@H](c1ccccc1Cl)N1CCc2sccc2C1` [Clopidogrel, reference compound], the “Effect on platelet aggregatory response in rHuEPO treated rats (in words)” value [1] is reported as “platelet aggregatory response is normalized”, the “Platelet aggregation (%) Average” value [2] is reported as −2% and the “Hematocrit (%) Average” value [3] is reported as 46.07%. For the same compound, the “Hemoglobin (g/dL) Average” value [3] was 14.77 g/dL and the “RBC count (10^6/μL) Average” value [3] was 8.52 10^6/μL.

For “Recombinant Human Erythropoietin [rHuEPO]”, the “% platelet aggregation” value ([4]; ADP (1.25 μM), rHuEPO 25 μg/kg, 3 doses, blood 48 h after last dose) was 59.1 ± 3.2%, the “% platelet aggregation” value ([4]; ADP (1.25 μM), rHuEPO 50 μg/kg, 3 doses, blood 48 h after last dose) was 66.4 ± 4.5% and the “% platelet aggregation” value ([4]; Arachidonic acid (150 μM), rHuEPO 25 μg/kg) was 50.6 ± 3.1%. For the same compound, the “% platelet aggregation” value ([4]; Arachidonic acid (150 μM), rHuEPO 50 μg/kg) was 61.3 ± 3.4%, the “% platelet aggregation” value ([4]; Collagen (0.25 μg/ml), rHuEPO 25 μg/kg) was 30.5 ± 2.0% and the “% platelet aggregation” value ([4]; Collagen (0.25 μg/ml), rHuEPO 50 μg/kg) was 45.9 ± 3.2%. For the same compound, the “% platelet aggregation” value ([4]; Collagen (0.5 μg/ml), rHuEPO 25 μg/kg) was 56.9 ± 1.7%, the “% platelet aggregation” value ([4]; Collagen (0.5 μg/ml), rHuEPO 50 μg/kg) was 65.9 ± 1.7% and the “% platelet aggregation” value ([4]; Thrombin (0.0125 IU/ml), rHuEPO 25 μg/kg) was 37.7 ± 3.0%. For the same compound, the “% platelet aggregation” value ([4]; Thrombin (0.0125 IU/ml), rHuEPO 50 μg/kg) was 59.5 ± 4.4%, the “Effect on platelet aggregation (in words)” value ([4]; rHuEPO 25 and 50 μg/kg, s.c., constant concentration of aggregating agents) was “causes increase in platelet aggregation” and the “% platelet aggregation” value ([1]; ADP (1.25 μM), blood 2 h after antiplatelet treatment) was 59.5 ± 1.4%. The “% platelet aggregation” value ([1]; Arachidonic acid (150 μM)) was 44.4 ± 2.5%, the “% platelet aggregation” value ([1]; Collagen (0.25 μg/ml)) was 60.03 ± 1.9% and the “% platelet aggregation” value ([1]; Thrombin (0.025 IU/ml)) was 70.8 ± 1.0%. The “Bleeding Time” value [5] was 165 ± 28.1 s, the “Platelet aggregation (%) Average” value [2] was 55% and the “Effect on platelet aggregatory response in nephrectomized rats (in words)” value ([2]; ADP, rHuEPO 500 IU/kg, clopidogrel 10 mg/kg) was “platelet aggregation increases”. For the same compound, the “Hematocrit (%) Average” value [3] was 62.3%, the “Hemoglobin (g/dL) Average” value [3] was 20.4 g/dL and the “RBC count (10^6/μL) Average” value [3] was 11.13 10^6/μL. For the same compound, the “Effect on hematological parameters (in words)” value ([3]; nephrectomized rats) was “increase in RBC count, hemoglobin and hematocrit”, the “Blood urea nitrogen mg/dL Average” value [6, 7] was 64.33 mg/dL and the “Serum creatinine mg/dL Average” value [6, 7] was 0.74 mg/dL. The “Serum urea mg/dL Average” value [6, 7] was 134.33 mg/dL, the “Serum uric acid mg/dL Average” value [6, 7] was 1.4 mg/dL and the “Total protein g/dL Average” value [6, 7] was 6.13 g/dL. For the same compound, the “Effect on kidney function / kidney biomarkers (in words)” value ([6]; nephrectomized rats) was “further increase in the serum creatinine, serum urea, serum uric acid, blood urea nitrogen”.
